According to PubChem BioAssay (NCI):
“And” between values parts separate entries of the source, which are not always exact repeats. Equal values may be shown once.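 Method: 48-hour compound exposure of cells in 96-well plates, five concentrations, linear interpolation of endpoints. Abbreviation: GI50, concentration required for 50% inhibition of growth. TGI is the concentration that stops growth completely.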

Tests used:
Assay in all cases: DTP human tumour cell line panel, 48 h
[1] = system: OVCAR-4 ovarian
[2] = system: U251 CNS
[3] = system: SF-268 CNS
[4] = system: A549 NSCLC
[5] = system: HL-60(TB) leukemia
[6] = system: RXF 393 renal
[7] = system: SNB-75 CNS
[8] = system: NCI-H23 lung
[9] = system: HS 578T breast
[10] = system: ACHN renal

Structure (SMILES)	GI50 [1]	TGI [1]	GI50 [2]	TGI [2]	GI50 [3]	TGI [3]	GI50 [4]	GI50 [5]	TGI [5]	GI50 [6]	TGI [7]	GI50 [8]	TGI [8]	GI50 [9]	TGI [9]	GI50 [10]	TGI [10]	TGI [4]	TGI [6]	GI50 [7]
COc1ccc2c(=O)cc(-c3ccccc3)[nH]c2c1	3.28 µM	> 100 µM	0.707 µM	> 100 µM	1.28 µM	> 100 µM	0.67 µM	0.256 µM	1.19 µM	0.762 µM	> 100 µM	1.25 µM	> 100 µM	0.758 µM	> 100 µM	4.22 µM	> 100 µM	–	–	–
O=C1c2ccccc2-[n+]2ccc3c([nH]c4ccccc43)c21	–	2.02 µM	–	1.47 µM	–	1.3 µM	–	–	1.38 µM	–	1.93 µM	–	2.76 µM	–	> 31.6 µM	–	4.08 µM	2.7 µM	1.26 µM	–
COc1cc(F)c(F)c(Nc2ccc(I)cc2F)c1NS(=O)(=O)C1(C[C@H](O)CO)CC1	3.44 µM	> 10 µM	2.09 µM	> 10 µM	5.72 µM	> 10 µM	0.628 µM	0.0219 µM	> 10 µM	1.05 µM	> 10 µM	0.283 µM	> 10 µM	> 5.43 µM	> 10 µM	0.897 µM	> 10 µM	> 10 µM	> 9.5 µM	2.62 µM
[C](#Cc1ccccc1)[Hg][C]#Cc1ccccc1	18.6 µM	45.8 µM	22.4 µM	43.9 µM	18.7 µM	38 µM	50.1 µM	27.7 µM	> 100 µM	16.5 µM	> 100 µM	37.8 µM	> 100 µM	> 100 µM	> 100 µM	21.1 µM	41.6 µM	> 100 µM	34.9 µM	> 100 µM
C[C@@H]1C[C@H](C)CN(S(=O)(=O)c2ccc3c(NO)c4ccc(S(=O)(=O)N5C[C@H](C)C[C@H](C)C5)cc4c(N=O)c3c2)C1	0.17 µM	0.346 µM	0.129 µM	0.266 µM	0.0252 µM	0.0698 µM	0.17 µM	0.185 µM	0.448 µM	0.158 µM	0.255 µM	0.185 µM	0.4 µM	0.161 µM	0.422 µM	0.143 µM	0.293 µM	0.327 µM	0.299 µM	0.123 µM
C=CCNc1nc2c(s1)C(=O)c1ccccc1C2=O	–	26.4 µM	–	20.1 µM	–	26 µM	–	–	4.02 µM	–	38.8 µM	–	21.8 µM	–	> 100 µM	–	20.2 µM	19.3 µM	35.4 µM	–
Cn1c(-c2c(N)n(Nc3cccc(Cl)c3)c3nc(C#N)c(C#N)nc23)nc2ccccc21	1.36 µM	16.4 µM	7.92 µM	15.3 µM	10 µM	35.6 µM	10.9 µM	8.19 µM	> 50 µM	0.0138 µM	35.1 µM	2.88 µM	13.2 µM	7.26 µM	30.1 µM	5.44 µM	15 µM	35.4 µM	3.54 µM	8.33 µM
FC(F)(c1ccc2ncccc2c1)c1nnc2ccc(-c3ccncc3)nn12	> 100 µM	> 100 µM	95.2 µM	> 100 µM	66.5 µM	> 100 µM	76.8 µM	> 100 µM	> 100 µM	16.4 µM	> 100 µM	> 100 µM	> 100 µM	22.3 µM	> 100 µM	50.2 µM	> 100 µM	> 100 µM	83.8 µM	19 µM
CCOC(=O)C(Cc1c[nH]c2c(N(CCO)CCO)cccc12)(NC(C)=O)C(=O)OCC	196 µM	> 1000 µM	183 µM	420 µM	> 1000 µM	> 1000 µM	> 1000 µM	318 µM	> 1000 µM	> 1000 µM	249 µM	> 1000 µM	> 1000 µM	302 µM	> 1000 µM	119 µM	> 1000 µM	> 1000 µM	> 1000 µM	50.9 µM
COc1ccc(-c2ccncc2)cc1C(N)=O	> 25 µM	> 25 µM	> 25 µM	> 25 µM	> 25 µM	> 25 µM	> 25 µM	> 25 µM	> 25 µM	> 25 µM	> 25 µM	> 25 µM	> 25 µM	> 25 µM	> 25 µM	> 25 µM	> 25 µM	> 25 µM	> 25 µM	> 25 µM
COc1ccc(/C=C/C(=O)/C=C/c2cc3ccccc3[nH]c2=O)cc1	9.73 µM	> 100 µM	1.81 µM	3.73 µM	3.11 µM	11.4 µM	3.16 µM	3.24 µM	17.6 µM	3.31 µM	18.7 µM	4.31 µM	19.8 µM	3.14 µM	47 µM	3.81 µM	15.5 µM	12.6 µM	11.9 µM	4.33 µM
COc1cccc(/C(C#N)=C/c2nc3c(N4CCOCC4)nc(Cl)nc3n2C)c1	1.23 µM	2.59 µM	1.26 µM	2.66 µM	1.57 µM	3.17 µM	1.57 µM	1.46 µM	3.96 µM	1.02 µM	1.79 µM	1.52 µM	3.19 µM	1.59 µM	5.88 µM	0.625 µM	1.89 µM	4.23 µM	2.23 µM	0.305 µM
CC(C)Nc1cc(-c2c[nH]c(C(=O)N[C@H](CO)c3cccc(Cl)c3)c2)c(Cl)cn1	3.68 µM and > 6.63 µM	20.7 µM and > 10 µM	1.71 µM and 1.09 µM	18 µM and > 10 µM	4.46 µM and > 7.71 µM	24.5 µM and > 10 µM	2.33 µM and 0.919 µM	0.378 µM and 0.272 µM	4.67 µM and > 10 µM	2.14 µM and 1.06 µM	19.8 µM and > 10 µM	0.308 µM and 0.258 µM	16 µM and > 10 µM	4.32 µM and > 9.06 µM	60.5 µM and > 10 µM	2.24 µM and 2.08 µM	14.9 µM and > 10 µM	20.3 µM and > 10 µM	15 µM and > 10 µM	4.5 µM and > 5.45 µM
CC(C)c1c(-c2ccccc2)nc2c(C#N)c[nH]n2c1=O	25.6 µM	> 90 µM	33.8 µM	> 100 µM	28.8 µM	> 100 µM	33.4 µM	22.3 µM	60.4 µM	29.3 µM	> 95.2 µM	26.1 µM	> 79.6 µM	29.7 µM	99.6 µM	30.6 µM	> 90.9 µM	> 100 µM	> 93.4 µM	21.4 µM
CC(C)c1cnn2c(NCc3ccccc3)cc(NC[C@H]3CCNC[C@@H]3O)nc12	0.304 µM and 0.597 µM	2.8 µM and 3.62 µM	0.378 µM and 0.382 µM	10.7 µM and 10.4 µM	0.402 µM and 0.648 µM	4.63 µM and 2.72 µM	0.342 µM and 0.272 µM	0.132 µM and 0.297 µM	0.584 µM and 1.71 µM	0.352 µM and 1.03 µM	2.04 µM and 2.83 µM	0.463 µM	2.98 µM	0.839 µM and 1.38 µM	4.63 µM and 5.41 µM	0.833 µM and 1.55 µM	10.5 µM and 9.73 µM	11.9 µM and 7.97 µM	1.09 µM and 2.83 µM	0.515 µM and 1.32 µM
S=c1snc2n1CCN2	> 100 µM	> 100 µM	> 100 µM	> 100 µM	> 100 µM	> 100 µM	> 100 µM	48 µM	> 100 µM	> 100 µM	> 100 µM	> 100 µM	> 100 µM	> 100 µM	> 100 µM	> 100 µM	> 100 µM	> 100 µM	> 100 µM	> 100 µM
O=C(NOC[C@H](O)CO)c1ccc(F)c(F)c1Nc1ccc(I)cc1F	8.76 µM and > 10 µM	> 100 µM	1.05 µM and 0.662 µM	> 100 µM	25.6 µM and > 2.28 µM	> 100 µM	0.946 µM and 0.1 µM	< 0.01 µM and 0.0166 µM	> 100 µM	0.363 µM and 0.342 µM	> 100 µM	0.0188 µM and 0.0537 µM	> 100 µM	34.5 µM and > 2.97 µM	> 100 µM	–	> 100 µM	> 100 µM	43.4 µM and > 10 µM	17.8 µM and > 10 µM
CCOC(=O)Nc1nc2ccc(OC)cc2s1	> 100 µM	> 100 µM	> 100 µM	> 100 µM	> 100 µM	> 100 µM	> 100 µM	> 100 µM	> 100 µM	> 100 µM	> 100 µM	> 100 µM	> 100 µM	> 100 µM	> 100 µM	> 100 µM	> 100 µM	> 100 µM	> 100 µM	> 100 µM
COc1cc2nc(SCc3cc(OC)c(OC)c(OC)c3)n(Cc3ccccc3)c(=O)c2cc1OC	5.5 µM	> 100 µM	3.64 µM	19.3 µM	5.28 µM	47.4 µM	3.14 µM	2.14 µM	> 100 µM	1.02 µM	6.23 µM	6.58 µM	> 100 µM	2.09 µM	21.3 µM	4.83 µM	24.1 µM	> 100 µM	10.8 µM	0.876 µM
COc1ccccc1C#Cc1ccccc1C#CCCCCO	23.2 µM	63.1 µM	18.7 µM	37.3 µM	18 µM	45.2 µM	16.3 µM	50.8 µM	> 100 µM	13.8 µM	26.2 µM	19.1 µM	37.7 µM	17 µM	55.4 µM	19.4 µM	38.6 µM	36.5 µM	29.8 µM	12 µM
